Target: human GPR40 receptor (Homo sapiens, UniProt O14842)
Assay: IP1 accumulation measurements using the IPOne assay system in 1321N1 cells stably expressing human GPR40 receptor
Assay type: cell-based
Conditions: stimulation 1 h at 37° C.
Procedure: IP1 accumulation measurements using the IPOne assay system—1321N1 cells stably expressing human GPR40 receptor (Euroscreen, Belgium) are seeded 24 h before the assay in white 384-well plates in culture medium containing 10% FCS, 1% Na-Pyruvate and 400 μg/mL G418. IP1 is assayed according to the manufacturer's description (Cisbio Bioassays, France). In brief, the assay is started by substitution of the culture medium by stimulation buffer (Hepes 10 mM, CaCl2 1 mM, MgCl2 0.5 mM, KCl 4.2 mM, NaCl 146 mM, glucose 5.5 mM and LiCl 50 mM, pH 7.4). Cells are stimulated for 1 h at 37° C., 5% CO2 by addition of the compounds that are diluted in stimulation buffer containing LiCl. Assays are stopped by adding HTRF-conjugates (IP1-d2 and Anti-IP1 cryptate Tb) and lysis buffer, provided by the manufacturer. After an incubation time of 1 h at room temperature plates are measured using an EnVision™, Perkin Elmer. The obtained fluorescence ratios at 665/615 […] are then used to calculate the pEC50 values using Assay Explorer 3.3 Software (Accelrys, Inc.) by interpolation using an IP1 reference curve and subsequent sigmoidal curve fitting allowing for a variable hill slope.

Chain of human GPR40 receptor (O14842 whole entry): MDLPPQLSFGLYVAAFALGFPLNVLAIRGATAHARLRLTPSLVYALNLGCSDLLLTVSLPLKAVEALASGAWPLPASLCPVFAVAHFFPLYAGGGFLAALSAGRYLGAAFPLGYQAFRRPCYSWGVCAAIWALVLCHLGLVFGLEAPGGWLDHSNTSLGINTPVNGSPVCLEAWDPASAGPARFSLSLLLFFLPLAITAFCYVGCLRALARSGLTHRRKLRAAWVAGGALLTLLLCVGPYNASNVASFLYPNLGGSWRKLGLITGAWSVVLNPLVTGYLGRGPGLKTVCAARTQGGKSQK

## O=C(O)C[C@@H]1COc2cc(O[C@@H]3CCc4c3ccc(C(F)(F)F)c4CN3CCOCC3)ccc21 [Example 1, {(S)-6-[(R)-4-Morpholin-4-ylmethyl-5-trifluoromethyl-indan-1-yloxy]-2,3-dihydro-benzofuran-3-yl}-acetic acid]
  EC50: 3 nM

## CC(C)(C)OC(=O)N1CCN(Cc2c(C(F)(F)F)ccc3c2CC[C@H]3Oc2ccc3c(c2)OC[C@H]3CC(=O)O)CC1 [Example 2, {(S)-6-[(R)-4-(4-tert-Butoxycarbonyl-piperazin-1-ylmethyl)-5-trifluoromethyl-indan-1-yloxy]-2,3-dihydro-benzofuran-3-yl}-acetic acid]
  EC50: 20 nM

## O=C(O)C[C@@H]1COc2cc(O[C@@H]3CCc4c3ccc(C(F)(F)F)c4CN3CCSCC3)ccc21 [Example 3, {(S)-6-[(R)-4-Thiomorpholin-4-ylmethyl-5-trifluoromethyl-indan-1-yloxy]-2,3-dihydro-benzofuran-3-yl}-acetic acid]
  EC50: 3 nM

## O=C(O)C[C@@H]1COc2cc(O[C@@H]3CCc4c3ccc(C(F)(F)F)c4CN3CCCC3)ccc21 [Example 4, {(S)-6-[(R)-4-Pyrrolidin-1-ylmethyl-5-trifluoromethyl-indan-1-yloxy]-2,3-dihydro-benzofuran-3-yl}-acetic acid]
  EC50: 92 nM

## O=C(O)C[C@@H]1COc2cc(O[C@@H]3CCc4c3ccc(C(F)(F)F)c4CN3CCCCC3)ccc21 [Example 5, {(S)-6-[(R)-4-Piperidin-1-ylmethyl-5-trifluoromethyl-indan-1-yloxy]-2,3-dihydro-benzofuran-3-yl}-acetic acid]
  EC50: 5 nM

## Cc1nc2c(s1)CN(Cc1c(C(F)(F)F)ccc3c1CC[C@H]3Oc1ccc3c(c1)OC[C@H]3CC(=O)O)CC2 [Example 6, {(S)-6-[(R)-4-(2-Methyl-4,5,6,7-tetrahydro-thiazolo[5,4-c]pyridin-5-ylmethyl)-5-trifluoromethyl-indan-1-yloxy]-2,3-dihydro-benzofuran-3-yl}-acetic acid]
  EC50: 2 nM

## O=C(O)C[C@@H]1COc2cc(O[C@@H]3CCc4c3ccc(C(F)(F)F)c4CN3CCC(F)(F)CC3)ccc21 [Example 7, {(S)-6-[(R)-4-(4,4-Difluoro-piperidin-1-ylmethyl)-5-trifluoromethyl-indan-1-yloxy]-2,3-dihydro-benzofuran-3-yl}-acetic acid]
  EC50: 3 nM

## O=C(O)C[C@@H]1COc2cc(O[C@@H]3CCc4c3ccc(C(F)(F)F)c4CN3CCC4(CC3)CC4)ccc21 [Example 8, {(S)-6-[(R)-4-(6-Aza-spiro[2.5]oct-6-ylmethyl)-5-trifluoromethyl-indan-1-yloxy]-2,3-dihydro-benzofuran-3-yl}-acetic acid]
  EC50: 5 nM

## O=C(O)C[C@@H]1COc2cc(O[C@@H]3CCc4c3ccc(C(F)(F)F)c4CN3CCCOCC3)ccc21 [Example 9, {(S)-6-[(R)-[1,4]Oxazepan-4-ylmethyl-5-trifluoromethyl-indan-1-yloxy]-2,3-dihydro-benzofuran-3-yl}-acetic acid]
  EC50: 3 nM

## COC1CCN(Cc2c(C(F)(F)F)ccc3c2CC[C@H]3Oc2ccc3c(c2)OC[C@H]3CC(=O)O)CC1 [Example 10, {(S)-6-[(R)-4-(4-Methoxy-piperidin-1-ylmethyl)-5-trifluoromethyl-indan-1-yloxy]-2,3-dihydro-benzofuran-3-yl}-acetic acid]
  EC50: 5 nM

## O=C(O)C[C@@H]1COc2cc(O[C@@H]3CCc4c3ccc(C(F)(F)F)c4CN3CCC4(CCCO4)CC3)ccc21 [Example 11, {(S)-6-[(R)-4-(1-Oxa-8-aza-spiro[4.5]dec-8-ylmethyl)-5-trifluoromethyl-indan-1-yloxy]-2,3-dihydro-benzofuran-3-yl}-acetic acid]
  EC50: 6 nM

## O=C(O)C[C@@H]1COc2cc(O[C@@H]3CCc4c3ccc(C(F)(F)F)c4CN3CC4CC4C3)ccc21 (stereo partly drawn) [Example 12, {(S)-6-[(R)-4-(3-Aza-bicyclo[3.1.0]hex-3-ylmethyl)-5-trifluoromethyl-indan-1-yloxy]-2,3-dihydro-benzofuran-3-yl}-acetic acid]
  EC50: 20 nM

## O=C(O)C[C@@H]1COc2cc(O[C@@H]3CCc4c3ccc(C(F)(F)F)c4CN3CCC(CO)CC3)ccc21 [Example 13, {(S)-6-[(R)-4-(4-Hydroxymethyl-piperidin-1-ylmethyl)-5-trifluoromethyl-indan-1-yloxy]-2,3-dihydro-benzofuran-3-yl}-acetic acid]
  EC50: 9 nM

## CC1(O)CCN(Cc2c(C(F)(F)F)ccc3c2CC[C@H]3Oc2ccc3c(c2)OC[C@H]3CC(=O)O)CC1 [Example 14, {(S)-6-[(R)-4-(4-Hydroxy-4-methyl-piperidin-1-ylmethyl)-5-trifluoromethyl-indan-1-yloxy]-2,3-dihydro-benzofuran-3-yl}-acetic acid]
  EC50: 15 nM

## O=C(O)C[C@@H]1COc2cc(O[C@@H]3CCc4c3ccc(C(F)(F)F)c4CN3CCNCC3)ccc21 [Example 15, {(S)-6-[(R)-4-piperazin-1-ylmethyl-5-trifluoromethyl-indan-1-yloxy]-2,3-dihydro-benzofuran-3-yl}-acetic acid]
  EC50: 468 nM

## CC(=O)N1CCN(Cc2c(C(F)(F)F)ccc3c2CC[C@H]3Oc2ccc3c(c2)OC[C@H]3CC(=O)O)CC1 [Example 16, {(S)-6-[(R)-4-(4-Acetyl-piperazin-1-ylmethyl)-5-trifluoromethyl-indan-1-yloxy]-2,3-dihydro-benzofuran-3-yl}-acetic acid]
  EC50: 16 nM

## COC(=O)N1CCN(Cc2c(C(F)(F)F)ccc3c2CC[C@H]3Oc2ccc3c(c2)OC[C@H]3CC(=O)O)CC1 [Example 17, {(S)-6-[(R)-4-(4-Methoxycarbonyl-piperazin-1-ylmethyl)-5-trifluoromethyl-indan-1-yloxy]-2,3-dihydro-benzofuran-3-yl}-acetic acid]
  EC50: 4 nM

## C[C@@H]1CN(Cc2c(C(F)(F)F)ccc3c2CC[C@H]3Oc2ccc3c(c2)OC[C@H]3CC(=O)O)C[C@H](C)O1 [Example 18, {(S)-6-[(R)-4-(cis-2,6-Dimethyl-morpholin-4-ylmethyl)-5-trifluoromethyl-indan-1-yloxy]-2,3-dihydro-benzofuran-3-yl}-acetic acid]
  EC50: 11 nM

## O=C(O)C[C@@H]1COc2cc(O[C@@H]3CCc4c3ccc(C(F)(F)F)c4CN3CCCCCC3)ccc21 [Example 19, {(S)-6-[(R)-4-Azepan-1-ylmethyl-5-trifluoromethyl-indan-1-yloxy]-2,3-dihydro-benzofuran-3-yl}-acetic acid]
  EC50: 7 nM

## CCOC(=O)N1CCN(Cc2c(C(F)(F)F)ccc3c2CC[C@H]3Oc2ccc3c(c2)OC[C@H]3CC(=O)O)CC1 [Example 20, {(S)-6-[(R)-4-(4-Ethoxycarbonyl-piperazin-1-ylmethyl)-5-trifluoromethyl-indan-1-yloxy]-2,3-dihydro-benzofuran-3-yl}-acetic acid]
  EC50: 9 nM

## CCC(=O)N1CCN(Cc2c(C(F)(F)F)ccc3c2CC[C@H]3Oc2ccc3c(c2)OC[C@H]3CC(=O)O)CC1 [Example 21, {(S)-6-[(R)-4-(4-Propionyl-piperazin-1-ylmethyl)-5-trifluoromethyl-indan-1-yloxy]-2,3-dihydro-benzofuran-3-yl}-acetic acid]
  EC50: 12 nM

## CC(C)OC(=O)N1CCN(Cc2c(C(F)(F)F)ccc3c2CC[C@H]3Oc2ccc3c(c2)OC[C@H]3CC(=O)O)CC1 [Example 22, {(S)-6-[(R)-4-(4-Isopropoxycarbonyl-piperazin-1-ylmethyl)-5-trifluoromethyl-indan-1-yloxy]-2,3-dihydro-benzofuran-3-yl}-acetic acid]
  EC50: 14 nM

## CC1(C)CN(Cc2c(C(F)(F)F)ccc3c2CC[C@H]3Oc2ccc3c(c2)OC[C@H]3CC(=O)O)CCO1 [Example 23, {(S)-6-[(R)-4-(2,2-Dimethyl-morpholin-4-ylmethyl)-5-trifluoromethyl-indan-1-yloxy]-2,3-dihydro-benzofuran-3-yl}-acetic acid]
  EC50: 7 nM

## O=C(O)C[C@@H]1COc2cc(O[C@@H]3CCc4c3ccc(C(F)(F)F)c4CN3CC4CCC(C3)O4)ccc21 [Example 24, {(S)-6-[(R)-4-(8-Oxa-3-aza-bicyclo[3.2.1]oct-3-ylmethyl)-5-trifluoromethyl-indan-1-yloxy]-2,3-dihydro-benzofuran-3-yl}-acetic acid]
  EC50: 14 nM

## O=C(O)C[C@@H]1COc2cc(O[C@@H]3CCc4c3ccc(C(F)(F)F)c4CN3C4CCCC3CC4)ccc21 [Example 25, {(S)-6-[(R)-4-(8-Aza-bicyclo[3.2.1]oct-8-ylmethyl)-5-trifluoromethyl-indan-1-yloxy]-2,3-dihydro-benzofuran-3-yl}-acetic acid]
  EC50: 15 nM

## CN1CCN(Cc2c(C(F)(F)F)ccc3c2CC[C@H]3Oc2ccc3c(c2)OC[C@H]3CC(=O)O)CC1=O [Example 26, {(S)-6-[(R)-4-(4-Methyl-3-oxo-piperazin-1-ylmethyl)-5-trifluoromethyl-indan-1-yloxy]-2,3-dihydro-benzofuran-3-yl}-acetic acid]
  EC50: 26 nM

## O=C(O)C[C@@H]1COc2cc(O[C@@H]3CCc4c3ccc(C(F)(F)F)c4CN3CCn4ccnc4C3)ccc21 [Example 27, {(S)-6-[(R)-4-(5,6-Dihydro-8H-imidazo[1,2-a]pyrazin-7-ylmethyl)-5-trifluoromethyl-indan-1-yloxy]-2,3-dihydro-benzofuran-3-yl}-acetic acid]
  EC50: 17 nM

## O=C(O)C[C@@H]1COc2cc(O[C@@H]3CCc4c3ccc(C(F)(F)F)c4CN3CCc4ncccc4C3)ccc21 [Example 28, {(S)-6-[(R)-4-(7,8-Dihydro-[1,6]naphthyridin-6-ylmethyl)-5-trifluoromethyl-indan-1-yloxy]-2,3-dihydro-benzofuran-3-yl}-acetic acid]
  EC50: 4 nM
